Data published in article PMC4550094 (Journal of biomolecular screening, 2013).
“And” between values parts separate entries of the source, which are not always exact repeats. Equal values may be shown once. Read-outs that look alike come from different tables or passages of the source.

How the values were obtained:
[1] = test system: HepG2 cells; assay: LipidTOX Red PLD assay, qHTS, 1536-well high-content imaging; format: cell-based, Human; conditions: for Primary Screen Efficacy: LOPAC primary qHTS, % of PLD induction by 19.16 µM amiodarone; for Primary Screen Efficacy / EC50: HepG2, 24 h; for EC50: Homo sapiens; for PLD induction (result in words): HepG2, primary screen and cherry-pick confirmation
[2] = test system: HepG2 cells; assay: CellTiter-Glo cell viability assay; format: cell-based, Human; conditions: for Cell Viability Efficacy (maximum inhibition of cell viability) / Cell Viability IC50: HepG2, 24 h treatment, mean ± SD of three experiments; for IC50: Homo sapiens, HepG2, 24 h, read-out: Cell Viability IC50
[3] = test system: I13-35 cells; conditions: read-out: Literature-Reported EC50, cited from earlier work
[4] = read-out: Confirmation EC50 (PLD induction)
[5] = read-out: Primary Screen EC50 (PLD induction)

With `CSc1ccc2c(c1)C(N1CCN(C)CC1)Cc1ccccc1S2` (stereo not shown) [Methiothepin] the “Primary Screen Efficacy” value [1] was 76.9% and the “Cell Viability Efficacy (maximum inhibition of cell viability)” value [2] was 121.8±9.0%.

With `COc1cc2nc(N3CCN(C(=O)OCc4ccccc4)[C@H](C(=O)NC(C)(C)C)C3)nc(N)c2cc1OC` [L-765,314] the “Primary Screen Efficacy” value [1] was 54.1% and the “Cell Viability Efficacy (maximum inhibition of cell viability)” value [2] was 115.2±0.3%.

In the case of `NC12CC3CC(CC(C3)C1)C2` [Amantadine], the EC50 [1, 4] is given as 3.9 ± 4.5 µM, the EC50 [1, 5] is given as 0.9 µM and the EC50 ([3]; I13-35 cells) is given as 239 µM.

In the case of `CN1CCN(CCCN2c3ccccc3Sc3ccc(C(F)(F)F)cc32)CC1` [trifluoperazine], the “PLD induction (result in words)” value [1] is reported as “positive”.

With `Cl.Cl.OCCN1CCN(CC/C=C2/c3ccccc3Sc3ccc(C(F)(F)F)cc32)CC1` [cis-(Z)-Flupenthixol] the “PLD induction (result in words)” value [1] was “significantly induced PLD formation”, the “Primary Screen Efficacy” value [1] was 37.3% and the “Cell Viability Efficacy (maximum inhibition of cell viability)” value [2] was 131.7±6.4%.

For `COCC(=O)O[C@]1(CCN(C)CCCc2nc3ccccc3[nH]2)CCc2cc(F)ccc2[C@@H]1C(C)C` [Mibefradil], the EC50 [1, 4] was 10.4 ± 3.3 µM, the EC50 [1, 5] was 4.5 µM and the “Cell Viability Efficacy (maximum inhibition of cell viability)” value [2] was 97.0±3.3%. The IC50 [2] was 25.2 ± 4.1 µM.

In the case of `CN(C)C/C=C(/c1ccc(Br)cc1)c1cccnc1` [Zimelidine], the EC50 [1, 4] is listed as 27.4 ± 1.5 µM, the EC50 [1, 5] is listed as 14.1 µM and the EC50 ([3]; I13-35 cells) is listed as 30.4 µM.

In the case of `CC(N)Cc1c[nH]c2ccc(OCc3cccs3)cc12` (stereo not shown) [BW 723C86], the “Primary Screen Efficacy” value [1] is reported as 62.2% and the “Cell Viability Efficacy (maximum inhibition of cell viability)” value [2] is reported as 37.7±11.9%.

For `COc1ccc2c(c1)c(CCN1CCOCC1)c(C)n2C(=O)c1cccc(Cl)c1Cl` [GW405833], the “Primary Screen Efficacy” value [1] was 49.4% and the “Cell Viability Efficacy (maximum inhibition of cell viability)” value [2] was 70.0±58.7%.

For `OCCN1CCN(CCCN2c3ccccc3Sc3ccc(C(F)(F)F)cc32)CC1` [fluphenazine], the “PLD induction (result in words)” value [1] was “positive”.

For `CC12CC3CC(C)(C1)CC(N)(C3)C2` [Memantine], the EC50 [1, 4] is given as 29 ± 1.7 µM, the EC50 [1, 5] is given as 12.6 µM and the EC50 ([3]; I13-35 cells) is given as 93.7 µM.

In the case of `CN1CCN(C2=Nc3ccccc3Oc3ccc(Cl)cc32)CC1` [lozapine], the “PLD induction (result in words)” value [1] is reported as “positive”.

With `CC(C(O)c1ccc(O)cc1)N1CCC(Cc2ccccc2)CC1` (stereo not shown) [Ifenprodil] the EC50 [1, 4] was 12.3 ± 6.7 µM, the EC50 [1, 5] was 7.9 µM and the “Cell Viability Efficacy (maximum inhibition of cell viability)” value [2] was 25.5±0.8%. It also gave an IC50 [2] of 21.1 ± 1.7 µM.

For `COc1ccccc1N1CCN(CCCCN2C(=O)c3ccccc3C2=O)CC1` [NAN-190], the “PLD induction (result in words)” value [1] was “significantly induced PLD formation”, the EC50 [1, 4] was 2 ± 0.3 µM and the EC50 [1, 5] was 2.2 µM. For the same molecule, the “Cell Viability IC50” value [2] was “Inactive”.

With `COc1cc2nc(N3CCCN(C)CC3)nc(NC3CCN(Cc4ccccc4)CC3)c2cc1OC` [BIX 01294] the EC50 [1, 4] was 1.6 ± 0.4 µM, the EC50 [1, 5] was 3.5 µM and the “Cell Viability Efficacy (maximum inhibition of cell viability)” value [2] was 98% and 98.6±3.3%. For the same molecule, the IC50 [2] was 10 ± 1.6 µM.

In the case of `CN(C)CC/C=C1/c2ccccc2Sc2ccc(Cl)cc21` [chlorprothixene], the “PLD induction (result in words)” value [1] is reported as “significantly induced PLD formation”.

For `CCN(CC)CCCC(C)Nc1ccnc2cc(Cl)ccc12` (stereo not shown) [Chloroquine], the EC50 [1, 4] is listed as 23.6 µM, the EC50 [1, 5] is listed as 28.2 µM and the EC50 [3] is listed as 11.8 µM.

For `CN(C)CCCC1(c2ccc(F)cc2)OCc2cc(C#N)ccc21` (stereo not shown) [Citalopram], the EC50 [1, 4] is given as 27.5 ± 3.1 µM, the EC50 [1, 5] is given as 10 µM and the EC50 ([3]; I13-35 cells) is given as 38 µM.

Molecule `CC(CCc1ccccc1)NCC(O)c1ccc(O)c(C(N)=O)c1` (stereo not shown) [Labetalol] has an EC50 [1, 4] of 24.8 ± 4.9 µM and an EC50 [1, 5] of 12.6 µM.

With `CN(C)CCC=C1c2ccccc2C=Cc2ccccc21` [cyclobenzaprine] the “PLD induction (result in words)” value [1] was “identified as novel PLD inducers”.

In the case of `CC[C@]1(O)C[C@@H]2CN(CCc3c([nH]c4ccccc34)[C@@](C(=O)OC)(c3cc4c(cc3OC)N(C)[C@H]3[C@@](O)(C(=O)OC)[C@H](OC(C)=O)[C@]5(CC)C=CCN6CC[C@]43[C@@H]65)C2)C1` [Vinblastine], the EC50 [1, 4] is reported as 9.5 ± 5.5 µM, the EC50 [1, 5] is reported as 12.6 µM and the “Cell Viability IC50” value [2] is reported as “Inactive”.

In the case of `OC(CN1CCC(Cc2ccc(F)cc2)CC1)c1ccc(Cl)cc1` (stereo not shown) [Eliprodil], the EC50 [1, 4] is reported as 9 ± 5 µM, the EC50 [1, 5] is reported as 10 µM and the “Cell Viability Efficacy (maximum inhibition of cell viability)” value [2] is reported as 24.6±2.1%. The IC50 [2] was 26.5 ± 2.2 µM.

For `OCCN1CCN(CCCN2c3ccccc3C=Cc3ccccc32)CC1` [opipramol], the “PLD induction (result in words)” value [1] was “identified as novel PLD inducers”.

For `CC(C)(C)[C@]1(O)CCN2C[C@H]3c4ccccc4CCc4cccc(c43)[C@@H]2C1` [(+)-Butaclamol], the “Cell Viability Efficacy (maximum inhibition of cell viability)” value [2] was 47.2±18.3% and the IC50 [2] was 47.8 ± 32.2 µM.

In the case of `CN1CCN(C2Cc3ccccc3Sc3ccc(Cl)cc32)CC1.O=C(O)/C=C\C(=O)O` (stereo not shown) [Octoclothepin], the “Primary Screen Efficacy” value [1] is reported as 135.0% and the “Cell Viability Efficacy (maximum inhibition of cell viability)” value [2] is reported as 121.0±4.9%.

In the case of `CC(CN1c2ccccc2Sc2ccccc21)N(C)C` (stereo not shown) [promethazine], the “PLD induction (result in words)” value [1] is reported as “positive”.

With `Cc1c2ccncc2c(C)c2c1[nH]c1ccccc12` [Ellipticine] the EC50 [1, 4] was 9 ± 3.3 µM, the EC50 [1, 5] was 5 µM and the “Cell Viability Efficacy (maximum inhibition of cell viability)” value [2] was 102.3±4.0%. It also gave an IC50 [2] of 29.8 ± 2.4 µM.

In the case of `CN1CCC(=C2c3ccccc3C=Cc3ccccc32)CC1` [cyproheptadine], the “PLD induction (result in words)” value [1] is reported as “identified as novel PLD inducers”.

In the case of `CN1CCN(c2nc3cc(C(F)(F)F)ccc3n3cccc23)CC1` [CGS-12066A], the “Primary Screen Efficacy” value [1] is reported as 103.7% and the “Cell Viability Efficacy (maximum inhibition of cell viability)” value [2] is reported as 56.7±13.3%.

For `CNCCCN1c2ccccc2CCc2ccccc21` [Desipramine], the EC50 [1, 4] is given as 5.1 ± 1.1 µM, the EC50 [1, 5] is given as 11.2 µM and the EC50 ([3]; I13-35 cells) is given as 9.1 µM.

In the case of `CN1CCC[C@@H]1CCO[C@](C)(c1ccccc1)c1ccc(Cl)cc1` [clemastine], the “PLD induction (result in words)” value [1] is reported as “significantly induced PLD formation”.

In the case of `CN(C)CCCN1c2ccccc2CCc2ccccc21` [Imipramine], the EC50 [1, 4] is given as 20.8 ± 6.9 µM, the EC50 [1, 5] is given as 10 µM and the EC50 ([3]; I13-35 cells) is given as 21 µM.

For `CC(C)NCC(O)COc1cccc2ccccc12` (racemic) [(±)-Propranolol], the “Cell Viability IC50” value [2] was “Inactive”.

In the case of aminobenzotropine, the “PLD induction (result in words)” value [1] is reported as “significantly induced PLD formation”.

With `CC(C)[C@H]1c2ccc(F)cc2CC[C@@]1(CCN(C)CCCc1nc2ccccc2[nH]1)OC(=O)C1CC1` [NNC 55-0396] the “Primary Screen Efficacy” value [1] was 91.6% and the “Cell Viability Efficacy (maximum inhibition of cell viability)” value [2] was 106% and 106.3±4.3%.

In the case of `CN(C)CCCN1c2ccccc2Sc2ccc(Cl)cc21` [Chlorpromazine], the EC50 [1, 4] is listed as 5.4 ± 1.9 µM, the EC50 [1, 5] is listed as 10 µM and the EC50 ([3]; I13-35 cells) is listed as 4.1 µM.

For `COc1ccc(NC(=O)c2ccc(-c3ccc(-c4noc(C)n4)cc3C)cc2)cc1N1CCN(C)CC1` [GR 127935], the “PLD induction (result in words)” value [1] was “significantly induced PLD formation”, the EC50 [1, 4] was 0.8 µM and the EC50 [1, 5] was 6.3 µM. For the same molecule, the “Cell Viability Efficacy (maximum inhibition of cell viability)” value [2] was 106.7±13.6% and the IC50 [2] was 42.6 ± 10.3 µM.

In the case of `COc1ccccc1N1CCN(CCN(C(=O)c2ccc(F)cc2)c2ccccn2)CC1` [p-MPPF], the “PLD induction (result in words)” value [1] is reported as “significantly induced PLD formation”.

In the case of `NC(N)=NC(=O)c1nc(Cl)c(N2CCCCCC2)nc1N` [5-(N,N-hexamethylene) amiloride], the “Primary Screen Efficacy” value [1] is reported as 52.8% and the “Cell Viability Efficacy (maximum inhibition of cell viability)” value [2] is reported as 40.7±4.9%.

With `C[C@@H]1O[C@@H](O[C@H]2C[C@@H](O)[C@]3(CO)[C@H]4[C@H](O)C[C@]5(C)[C@@H](C6=CC(=O)OC6)CC[C@]5(O)[C@@H]4CC[C@]3(O)C2)[C@H](O)[C@H](O)[C@H]1O` [Ouabain] the EC50 [1, 4] was 3 ± 1.8 µM, the EC50 [1, 5] was 0.4 µM and the “Cell Viability Efficacy (maximum inhibition of cell viability)” value [2] was 43.6±1.1%. For the same molecule, the “Cell Viability Efficacy (maximum inhibition of cell viability)” value ([2]; listed as ouabain) was 42% and the IC50 [2] was 0.2 µM.

With `CN1C[C@H](CNC(=O)OCc2ccccc2)C[C@@H]2c3cccc4c3c(cn4C)C[C@H]21` [Metergoline] the EC50 [1, 4] was 5.8 ± 1.3 µM, the EC50 [1, 5] was 2.5 µM and the “Cell Viability Efficacy (maximum inhibition of cell viability)” value [2] was 127.9±4.1%. The IC50 [2] was 62.8 µM.
